Several values for one entry are separate records, joined by “and”; a condition that tells them apart may be missing. Equal values may be shown once. Toxic doses and inconclusive results are not listed.
Tested on: BDF1 mice, P388 leukemia ip, median survival T/C
Assay: NCI In Vivo Anticancer Drug Screen. Data for tumor model P388 Leukemia (intraperitoneal) in B6D2F1 (BDF1) mice
Settings: endpoint: median survival time, higher = longer survival
In short: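 T/C = treated-group survival ÷ vehicle-control survival; tumour transplanted into mice before dosing.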

[1] = dose: 50.0 mg/kg/injection, schedule: Q04DX003 (ip), vehicle: saline with Tween-80
[2] = dose: 100.0 mg/kg/injection, schedule: Q04DX003 (ip), vehicle: saline with Tween-80
[3] = dose: 200.0 mg/kg/injection, schedule: Q04DX003 (ip), vehicle: saline with Tween-80
[4] = dose: 50.0 mg/kg/injection, schedule: Q01DX009 (ip), vehicle: saline
[5] = dose: 100.0 mg/kg/injection, schedule: Q01DX009 (ip), vehicle: saline with Tween-80
[6] = dose: 50.0 mg/kg/injection, schedule: Q01DX009 (ip), vehicle: saline with Tween-80
[7] = dose: 200.0 mg/kg/injection, schedule: Q01DX009 (ip), vehicle: saline with Tween-80
[8] = dose: 25.0 mg/kg/injection, schedule: Q04DX003 (ip), vehicle: saline
[9] = dose: 50.0 mg/kg/injection, schedule: Q04DX003 (ip), vehicle: saline
[10] = dose: 100.0 mg/kg/injection, schedule: Q04DX003 (ip), vehicle: saline
[11] = dose: 200.0 mg/kg/injection, schedule: Q04DX003 (ip), vehicle: saline
[12] = dose: 400.0 mg/kg/injection, schedule: Q04DX003 (ip), vehicle: saline
[13] = dose: 400.0 mg/kg/injection, schedule: Q01DX009 (ip), vehicle: saline with Tween-80
[14] = dose: 100.0 mg/kg/injection, schedule: Q01DX009 (ip), vehicle: Klucel (hydroxypropylcellulose) (HPC)
[15] = dose: 100.0 mg/kg/injection, schedule: Q04DX003 (ip), vehicle: Klucel (hydroxypropylcellulose) (HPC)
[16] = dose: 200.0 mg/kg/injection, schedule: Q04DX003 (ip), vehicle: Klucel (hydroxypropylcellulose) (HPC)
[17] = dose: 200.0 mg/kg/injection, schedule: Q01DX009 (ip), vehicle: Klucel (hydroxypropylcellulose) (HPC)
[18] = dose: 12.5 mg/kg/injection, schedule: Q01DX009 (ip), vehicle: saline

[Se]c1ccnc([Se])n1
T/C [1]: 100 % of control | T/C [2]: 90 % of control | T/C [3]: 100 % of control

O=C(CC(O)(C(F)(F)F)C(F)(F)F)c1ccco1
T/C (dose: 17.0 mg/kg/injection, schedule: Q01DX009 (ip), vehicle: saline): 100 % of control | T/C (dose: 25.0 mg/kg/injection, schedule: Q01DX009 (ip), vehicle: saline with Tween-80): 123 % of control | T/C (dose: 33.0 mg/kg/injection, schedule: Q01DX009 (ip), vehicle: saline): 100 % of control | T/C [4]: 100 % of control | T/C [1]: 120 % of control | T/C (dose: 75.0 mg/kg/injection, schedule: Q01DX009 (ip), vehicle: saline): 100 % of control | T/C [5]: 123 % of control | T/C [2]: 120 % of control

O=C1C(=O)c2ccccc2-c2ccccc21.O=C1C(=O)c2ccccc2-c2ccccc21.[Hg]
T/C (dose: 1.5 mg/kg/injection, schedule: Q01DX009 (ip), vehicle: saline with Tween-80): 110 % of control | T/C (dose: 2.6 mg/kg/injection, schedule: Q01DX009 (ip), vehicle: saline with Tween-80): 100 % of control | T/C (dose: 3.0 mg/kg/injection, schedule: Q01DX009 (ip), vehicle: saline with Tween-80): 112 % of control | T/C (dose: 4.0 mg/kg/injection, schedule: Q01DX009 (ip), vehicle: saline with Tween-80): 110 % of control | T/C (dose: 6.0 mg/kg/injection, schedule: Q01DX009 (ip), vehicle: saline with Tween-80): 116 % of control | T/C (dose: 9.0 mg/kg/injection, schedule: Q01DX009 (ip), vehicle: saline with Tween-80): 110 % of control

O=C1CCCCCC1Cc1cc(O)c(CC2CCCCCC2=O)cc1O (stereo unspecified)
T/C [6]: 96 % of control | T/C [7]: 97 % of control

COc1ccc(C(Br)C(Br)C(=O)c2ccc3c(c2)OCO3)cc1OC (stereo unspecified)
T/C [8]: 104 % of control | T/C [9]: 90 % of control | T/C [10]: 113 % of control | T/C [11]: 97 % of control | T/C [12]: 90 % of control | T/C (dose: 600.0 mg/kg/injection, schedule: Q04DX003 (ip), vehicle: saline): 119 % of control

CCCC(C#N)(CCCl)c1ccccc1 (stereo unspecified)
T/C [5]: 100 % of control | T/C [7]: 108 % of control | T/C [13]: 112 % of control

Cc1cc(=O)[nH]c(N/N=C2/CCCCC2C)n1 (stereo unspecified)
T/C (dose: 8.0 mg/kg/injection, schedule: Q01DX009 (ip), vehicle: Klucel (hydroxypropylcellulose) (HPC)): 107 % of control | T/C (dose: 16.0 mg/kg/injection, schedule: Q01DX009 (ip), vehicle: Klucel (hydroxypropylcellulose) (HPC)): 107 % of control | T/C (dose: 33.0 mg/kg/injection, schedule: Q01DX009 (ip), vehicle: Klucel (hydroxypropylcellulose) (HPC)): 100 % of control | T/C [14]: 100 % of control | T/C [15]: 109 % of control | T/C [16]: 95 % of control

CCn1c2ccccc2c2cc(NC(=O)Nc3ccc([N+](=O)[O-])cc3C)ccc21
T/C [6]: 100 % of control | T/C [5]: 91 % of control | T/C [7]: 91 % of control

O=[N+]([O-])c1ccc2c3c(cccc13)-c1ccccc1-2
T/C [14]: 110 % of control | T/C [15]: 90 % of control | T/C [17]: 105 % of control | T/C [16]: 95 % of control | T/C (dose: 400.0 mg/kg/injection, schedule: Q01DX009 (ip), vehicle: Klucel (hydroxypropylcellulose) (HPC)): 100 % of control | T/C (dose: 400.0 mg/kg/injection, schedule: Q04DX003 (ip), vehicle: Klucel (hydroxypropylcellulose) (HPC)): 100 % of control

Cc1cccc(C(=O)O)[n+]1[O-]
T/C [5]: 95 % of control | T/C [7]: 90 % of control | T/C [13]: 90 % of control

CC1=CC(c2ccccc2)=CC(C)(C)C1 (tested in a mixture with another compound)
T/C (dose: 25.0 mg/kg/injection, schedule: Q01DX009 (ip), vehicle: saline sonified): 104 % of control | T/C (dose: 50.0 mg/kg/injection, schedule: Q01DX009 (ip), vehicle: saline sonified): 109 % of control | T/C (dose: 100.0 mg/kg/injection, schedule: Q01DX009 (ip), vehicle: saline sonified): 109 % of control

COC1OC(n2cnc3ncn(Cc4ccccc4)c3c2=N)C2OC(C)(C)OC12 (stereo unspecified)
T/C (dose: 100.0 mg/kg/injection, schedule: Q01DX001 (ip), vehicle: saline): 110 % of control | T/C (dose: 200.0 mg/kg/injection, schedule: Q01DX001 (ip), vehicle: saline): 95 % of control

CCCCCC/C=C/C#CCCCCCCCC(=O)O
T/C (dose: 37.5 mg/kg/injection, schedule: Q01DX009 (ip), vehicle: Klucel (hydroxypropylcellulose) (HPC)): 106 % of control | T/C (dose: 75.0 mg/kg/injection, schedule: Q01DX009 (ip), vehicle: Klucel (hydroxypropylcellulose) (HPC)): 100 % of control | T/C (dose: 150.0 mg/kg/injection, schedule: Q01DX009 (ip), vehicle: Klucel (hydroxypropylcellulose) (HPC)): 109 % of control

S=C(Nc1ccc(Cl)c(Cl)c1)N1c2ccccc2-n2cccc2C1c1cccnc1 (stereo unspecified)
T/C (dose: 50.0 mg/kg/injection, schedule: Q01DX009 (ip), vehicle: Klucel (hydroxypropylcellulose) (HPC)): 124 % of control | T/C [14]: 121 % of control | T/C [17]: 117 % of control

CC1(C)N=C(N)N=C(N)N1c1ccc2ccccc2c1
T/C [18]: 120 % of control | T/C [4]: 160 % of control | T/C [9]: 100 % of control

CCc1n[nH]c(=O)c2c3ccccc3nn12
T/C (dose: 100.0 mg/kg/injection, schedule: Q01DX001 (ip), vehicle: saline with Tween-80): 96 % of control | T/C (dose: 200.0 mg/kg/injection, schedule: Q01DX001 (ip), vehicle: saline with Tween-80): 105 % of control | T/C (dose: 400.0 mg/kg/injection, schedule: Q01DX001 (ip), vehicle: saline with Tween-80): 100 % of control

Nc1c2ccccc2cc2ccccc12
T/C [6]: 108 % of control | T/C [1]: 108 % of control | T/C [5]: 108 % of control | T/C [2]: 95 % of control | T/C [7]: 113 % of control | T/C [3]: 91 % of control

COc1ccc2[nH]c(=O)c(C)c(C)c2c1
T/C (dose: 3.12 mg/kg/injection, schedule: Q01DX009 (ip), vehicle: saline): 98 % of control | T/C (dose: 6.25 mg/kg/injection, schedule: Q01DX009 (ip), vehicle: saline): 94 % of control | T/C [18]: 94 % of control | T/C (dose: 25.0 mg/kg/injection, schedule: Q01DX009 (ip), vehicle: saline): 92 % of control | T/C [8]: 107 % of control | T/C [4]: 96 % of control and 117 % of control | T/C [9]: 118 % of control | T/C (dose: 100.0 mg/kg/injection, schedule: Q01DX009 (ip), vehicle: saline): 94 % of control | T/C [10]: 111 % of control | T/C [11]: 100 % of control | T/C [12]: 115 % of control

COc1cc(OC)cc(-c2n[se]c(-c3cc(OC)cc(OC)c3)n2)c1
T/C (dose: 0.19 mg/kg/injection, schedule: Q01DX009 (ip), vehicle: saline with Tween-80): 114 % of control | T/C (dose: 0.39 mg/kg/injection, schedule: Q01DX009 (ip), vehicle: saline with Tween-80): 98 % of control | T/C (dose: 0.78 mg/kg/injection, schedule: Q01DX009 (ip), vehicle: saline with Tween-80): 104 % of control | T/C (dose: 1.56 mg/kg/injection, schedule: Q01DX009 (ip), vehicle: saline with Tween-80): 107 % of control

N=Nc1c2ccccc2c2nc3c(N)[nH]nc(N)c3nc12
T/C [2]: 97 % of control | T/C (dose: 400.0 mg/kg/injection, schedule: Q04DX003 (ip), vehicle: saline with Tween-80): 95 % of control

CC1(C)N=C(N)N=C(N)N1c1cccc(C#N)c1
T/C (dose: 22.0 mg/kg/injection, schedule: Q04DX003 (ip), vehicle: saline): 111 % of control and 118 % of control | T/C (dose: 33.0 mg/kg/injection, schedule: Q04DX003 (ip), vehicle: saline): 122 % of control and 123 % of control | T/C [9]: 118 % of control and 123 % of control | T/C (dose: 75.0 mg/kg/injection, schedule: Q04DX003 (ip), vehicle: saline): 95 % of control | T/C [10]: 116 % of control
